The source of these data is paper PMC8286840, “Identifying SARS-CoV-2 antiviral compounds by screening for small molecule inhibitors of Nsp3 papain-like protease” (Biochemical Journal, 2021).

Structures can show the parent of a compound that is named as a salt. Where two headings read alike, the source gives them in different places. Where a SMILES comes first, the peptide text is derived from it. The star is where a group is joined. Cbz = O=C(OCc1ccccc1)*

Experiment [1] deals with T1, SARS-CoV-2 PLpro (nsp3 1564–1878) (Severe acute respiratory syndrome coronavirus 2, UniProt P0DTD1). Briefly: biochemical. Also on record: FRET-quenched peptide (Pro3) cleavage by PLpro, 10 min pre-incubation, slope over 20 min, normalised to no-compound control. The following applies: low concentration screen, read-out: % of control remaining.
The target in experiment [2] is T1, SARS-CoV-2 PLpro (nsp3 1564–1878). Briefly: biochemical. Also on record: FRET-quenched peptide (Pro3) cleavage by PLpro, 10 min pre-incubation, slope over 20 min, normalised to no-compound control. The note with it: high concentration screen, read-out: % of control remaining.

`CCCCCCCCCCCCCCCC(=O)Nc1ccn([C@@H]2O[C@H](CO)[C@@H](O)[C@@H]2C#N)c(=O)n1` [Sapacitabine]: the remaining activity at 1.25 µM in experiment [1] (Well no.=7908) is 98.8%. In experiment [2] (Well no.=7908), the remaining activity at 3.75 µM came out at 102%.

Regarding `Nc1nccc2c1ncn2[C@@H]1O[C@H](CO)[C@@H](O)[C@H]1O` [3-deazaadenosine], the remaining activity at 1.25 µM in experiment [1] (Well no.=488) worked out at 94.5%. The remaining activity at 3.75 µM in experiment [2] (Well no.=488) turned out to be 95.2%.

In the case of `O=C(c1ccc(/C=C/c2n[nH]c3ccccc23)cc1)N1CCNCC1` [KW 2449], the remaining activity at 1.25 µM in experiment [1] (Well no.=5108) came out at 102%. Further, the remaining activity at 3.75 µM in experiment [2] (Well no.=5108) was 107%.

Consider `CCCCCCCCCCCCc1ccc(S(=O)(=O)Nc2nncs2)cc1` [PHT-427], for which the remaining activity at 1.25 µM in experiment [1] (Well no.=4959) is 96.5%. In addition, the remaining activity at 3.75 µM in experiment [2] (Well no.=4959) turned out to be 98.1%.

`CC(C)NC[C@H](O)c1ccc(O)c(O)c1` [(-)-Isoproterenol hydrochloride]: the remaining activity at 1.25 µM in experiment [1] (Well no.=917) came out at 107%. The remaining activity at 3.75 µM in experiment [2] (Well no.=917) stood at 106%.

With `COc1ccc2c(c1)CC[C@@H]1[C@@H]2CC[C@]2(C)[C@@H](NCCCCCCN3C(=O)C=CC3=O)CC[C@@H]12` [U-73122 hydrate], the remaining activity at 1.25 µM in experiment [1] (Well no.=5562) came out at 93%. Also, the remaining activity at 3.75 µM in experiment [2] (Well no.=5562) was 93.8%.

For the molecule `CCCCC/C=C\C/C=C\C/C=C\CCCCC(=O)O` [γ-Linolenic acid (18:3 n-6)], in experiment [1] (Well no.=4307), the remaining activity at 1.25 µM was 95%. The remaining activity at 3.75 µM in experiment [2] (Well no.=4307) stood at 100%.

Regarding `NC(=O)COc1c(F)cc(SCCNS(=O)(=O)c2ccccc2)cc1F`, the remaining activity at 1.25 µM in experiment [1] (Well no.=5925) came to 94.7%. For the same molecule, in experiment [2] (Well no.=5925), the remaining activity at 3.75 µM was determined as 93.7%.

As to `N[C@@H](CCO)C(=O)O` [L-Homoserine], the remaining activity at 1.25 µM in experiment [1] (Well no.=6821) was found to be 100%. The remaining activity at 3.75 µM in experiment [2] (Well no.=6821) is 101%.

For `NS(=O)(=O)Cc1noc2ccccc12` [Zonisamide sodium], in experiment [1] (Well no.=1390), the remaining activity at 1.25 µM is 98.4%. Also, the remaining activity at 3.75 µM in experiment [2] (Well no.=1390) stood at 100%.

As to `C[C@@H](CN1CCC(Cc2ccccc2)CC1)[C@@H](O)c1ccc(O)cc1` [Ro 25-6981 hydrochloride], in experiment [1] (Well no.=1350), the remaining activity at 1.25 µM is 99.4%. Moreover, the remaining activity at 3.75 µM in experiment [2] (Well no.=1350) is 102%.

On to `CN(C)CCCCC(=O)Nc1ccc(NC(=S)NC(=O)c2ccc(C(C)(C)C)cc2)cc1` [Tenovin-6], for which the remaining activity at 1.25 µM in experiment [1] (Well no.=6724) amounted to 93.8%. Also, the remaining activity at 3.75 µM in experiment [2] (Well no.=6724) turned out to be 92%.

As to `OC[C@H]1O[C@@H](n2cnc3c(NC4CCCC4)ncnc32)[C@H](O)[C@@H]1O` [N6-Cyclopentyladenosine], the remaining activity at 1.25 µM in experiment [1] (Well no.=330) was determined as 85.8%. Further, the remaining activity at 3.75 µM in experiment [2] (Well no.=330) turned out to be 88.2%.

Consider `CC[C@H](C)[C@H](NC(=O)OCc1ccccc1)C(=O)N[C@@H](CCC(=O)O)C(=O)N1CCC[C@H]1C(=O)N[C@@H](Cc1ccccc1)C(=O)OC` [CH 5450] (Cbz-IEPF-OMe), for which the remaining activity at 1.25 µM in experiment [1] (Well no.=8516) was 101%. Moreover, the remaining activity at 3.75 µM in experiment [2] (Well no.=8516) is 102%.

Turning to `O=C1C(Cl)=C(N2C(=O)CCC2=O)C(=O)c2ccccc21` [MEK Inhibitor II], the remaining activity at 1.25 µM in experiment [1] (Well no.=2560) was 98%. Also, in experiment [2] (Well no.=2560), the remaining activity at 3.75 µM worked out at 98.5%.

With `O=c1[nH]nc(Sc2ncc([N+](=O)[O-])s2)n1-c1ccc2c(c1)OCCO2` [BI 78D3 - 4-(2,3-Dihydro-1,4-benzodioxin-6-yl)-2,4-dihydro-5-[(5-nitro-2-thiazolyl)thio]-3H-1,2,4-triazol-3-one], the remaining activity at 1.25 µM in experiment [1] (Well no.=2684) stood at 95.6%. The remaining activity at 3.75 µM in experiment [2] (Well no.=2684) turned out to be 97.1%.

On to `CC(CCc1ccc(O)cc1)NCCc1ccc(O)c(O)c1` (centres unmarked) [Dobutamine hydrochloride], for which the remaining activity at 1.25 µM in experiment [1] (Well no.=587) amounted to 97.5%. Further, the remaining activity at 3.75 µM in experiment [2] (Well no.=587) was 99.5%.

Consider `Cc1[nH]nc2ccc(-c3cncc(OC[C@@H](N)Cc4ccccc4)c3)cc12` [A-674563], for which the remaining activity at 1.25 µM in experiment [1] (Well no.=2991) is 97%. The remaining activity at 3.75 µM in experiment [2] (Well no.=2991) was 99.1%.

Take `C=CC[N+]1([C@H]2C[C@H]3[C@@H]4CC[C@H]5C[C@H](O)[C@@H](N6CCOCC6)C[C@]5(C)[C@H]4CC[C@]3(C)[C@H]2OC(C)=O)CCCC1` [Rocuronium bromide]: in experiment [1] (Well no.=2019), the remaining activity at 1.25 µM is 103%. Moreover, the remaining activity at 3.75 µM in experiment [2] (Well no.=2019) stood at 105%.

In the case of `COc1cc(Oc2ccnc3cc(OC)c(OC)cc23)ccc1NC(=O)NC(C)c1nccs1` (centres unmarked) [Ki20227], the remaining activity at 1.25 µM in experiment [1] (Well no.=2935) came out at 98.2%. The remaining activity at 3.75 µM in experiment [2] (Well no.=2935) is 102%.

On to `CCNC1(C(N)=O)CCN(c2ncnc3c2nc(-c2ccccc2Cl)n3-c2ccc(Cl)cc2)CC1` [Otenabant], for which the remaining activity at 1.25 µM in experiment [1] (Well no.=8393) stood at 93.1%. The remaining activity at 3.75 µM in experiment [2] (Well no.=8393) came to 87.6%.

As to `C[C@H]1[C@H](C)CC[C@]2(C(=O)O)CC[C@]3(C)C(=CC[C@@H]4[C@@]5(C)C[C@@H](O)[C@H](O)[C@@](C)(CO)[C@@H]5[C@H](O)C[C@]43C)[C@H]12` [Madecassic acid], in experiment [1] (Well no.=3657), the remaining activity at 1.25 µM is 104%. Besides, the remaining activity at 3.75 µM in experiment [2] (Well no.=3657) came to 104%.

On to `CC(C)(C)NCC(O)COc1cccc2c1CCC(=O)N2` (centres unmarked) [Carteolol (hydrochloride)], for which, in experiment [1] (Well no.=7623), the remaining activity at 1.25 µM is 101%. The remaining activity at 3.75 µM in experiment [2] (Well no.=7623) stood at 97.2%.

Consider `C[C@@H]1O[C@@H](O[C@H]2C[C@@H](O)[C@]3(CO)[C@H]4[C@H](O)C[C@]5(C)[C@@H](C6COC(=O)C6)CC[C@]5(O)[C@@H]4CC[C@]3(O)C2)[C@H](O)[C@H](O)[C@H]1O` (some centres unmarked) [Dihydroouabain], for which the remaining activity at 1.25 µM in experiment [1] (Well no.=539) was 91.5%. Further, the remaining activity at 3.75 µM in experiment [2] (Well no.=539) was determined as 93.8%.

For the molecule `CCCCCCCCCCCCCCCCCCCCC(=O)O` [Heneicosanoic acid], in experiment [1] (Well no.=4450), the remaining activity at 1.25 µM came out at 101%. Also, in experiment [2] (Well no.=4450), the remaining activity at 3.75 µM was 101%.

Consider `CCN(CC)CCCC(C)Nc1cc(/C=C/c2ccccc2Cl)nc2cc(Cl)ccc12` (centres unmarked) [XIB4035], for which, in experiment [1] (Well no.=5692), the remaining activity at 1.25 µM worked out at 89%. In addition, the remaining activity at 3.75 µM in experiment [2] (Well no.=5692) was 89.5%.

Consider `O=C(O)c1cc(=O)[nH]c(=O)[nH]1` [Orotic acid (6-Carboxyuracil)], for which the remaining activity at 1.25 µM in experiment [1] (Well no.=8146) stood at 105%. The remaining activity at 3.75 µM in experiment [2] (Well no.=8146) worked out at 98.3%.

On to `Cn1c([N+](=O)[O-])cnc1COC(N)=O` [Ronidazole], for which the remaining activity at 1.25 µM in experiment [1] (Well no.=4700) came out at 99.8%. In addition, the remaining activity at 3.75 µM in experiment [2] (Well no.=4700) came out at 96.7%.

Regarding `C[C@H]1O[C@H](O[C@H]2[C@H](O)[C@@H](O)[C@@H](O[C@H]3[C@H](O)[C@@H](O)C(O)O[C@@H]3CO)O[C@@H]2CO)[C@H](O)[C@@H](O)[C@@H]1N[C@H]1C=C(CO)[C@@H](O)[C@H](O)[C@H]1O` (some centres unmarked) [Acarbose], the remaining activity at 1.25 µM in experiment [1] (Well no.=5149) was found to be 101%. Also, in experiment [2] (Well no.=5149), the remaining activity at 3.75 µM came to 104%.

On to `CC(C)N(CCC(C(N)=O)(c1ccccc1)c1ccccn1)C(C)C` (centres unmarked) [Disopyramide phosphate salt], for which, in experiment [1] (Well no.=5508), the remaining activity at 1.25 µM was 105%. The remaining activity at 3.75 µM in experiment [2] (Well no.=5508) is 103%.

With `C=CC(=O)Nc1cccc(Sc2nc(Nc3ccc(N4CCN(C)CC4)cc3)ncc2Cl)c1` [WZ8040], the remaining activity at 1.25 µM in experiment [1] (Well no.=4717) was 107%. For the same molecule, the remaining activity at 3.75 µM in experiment [2] (Well no.=4717) was found to be 107%.
